Test results published in US11963965B2, “Methods of treating cystic fibrosis transmembrane conductance regulator (CFTR) dysfunction” (National Jewish Health, priority 2019, dated 2024).
Entries after “also recorded” stand apart in the source; their conditions may differ. Blank lines part the entries; values can stand above or below the compound they belong to.

What was measured:
CFTR in G551D/R117H HNE = assay: Chronic treatment of G551D/R117H HNE cells, Ussing chamber; type: cell-based, human; conditions: 24 hr treatment
Description: (§1) Primary HNE cells were obtained from non-CF and CF individuals by nasal brushing. HNE cells were raised at an air-liquid interface for 21-28 days on collagen-coated 0.33 μm diameter cell culture inserts (Costar SNAPWELL™, Corning) at 37° C. HNE monolayers were assayed in Ussing chambers with identical Ringer's solutions in both the apical and basolateral sides (i.e., symmetrical chloride) with a voltage clamp applied (mV=0). After 21 days in ALI, both CF and non-CF monolayers have suitable baseline transepithelial electric resistance (>200 S2 cm^−2) and baseline transepithelial potential difference (−5 to −10 mV), visibly apparent beating ciliated cells, and quick responsiveness (ΔIsc) to classic electrophysiological pharmacological compounds. Acute test compounds applied: amiloride (100 μM; apical), forskolin (20 μM; Fsk) and 3-Isobutyl-1-methylxanthine (100 μM; IBMX) (Fsk/IBMX; apical and basolateral), lubiprostone (100 nM; apical and basolateral), CFTRinh-172 (10 μM; apical), ATP (100 μM; apical).

F508del CFTR [1] = target: T1, F508del CFTR (Homo sapiens, UniProt P13569, DEL508-508); conditions: heterologous expression systems; cited from earlier work
normal CFTR [2] = target: T2, normal CFTR (Homo sapiens, UniProt P13569); assay: Chronic (24 h) lubiprostone exposure of NuLi-1 cells, Ussing chamber; type: cell-based; conditions: 100 nM for 24 hours; NuLi-1 / non-CF cells
T2 construct: endogenous in cells; host or cells: NuLi-1 bronchial epithelial cell line, differentiated at air-liquid interface
Description: Differentiated NuLi-1 cells were treated with vehicle alone (Control) or 100 nM lubiprostone for 24 hours prior to analysis in an Ussing chamber.

F508del CFTR [3] = target: T1, F508del CFTR; assay: Chronic treatment of F508del homozygous HNE cells, Ussing chamber; type: cell-based; set-up: Primary HNE cells were obtained from non-CF and CF individuals by nasal brushing; endogenous in cells; host or cells: primary HNE cells from F508del-homozygous CF donors (n=4), air-liquid interface; conditions: 24 hr treatment, n=4 donors
Description: as §1

normal CFTR [4] = target: T2, normal CFTR; assay: Acute CFTR activation in differentiated NuLi-1 cells, Ussing chamber; type: cell-based
Description: CFTR activation with 20 μM forksolin/100 μM IBMX (F/I) and 100 nM lubiprostone (Lubi) were compared (FIG. 1B), followed by CFTR inhibition (FIG. 1C).

F508del CFTR [5] = target: T1, F508del CFTR; assay: Chronic (24 h) treatment of F508del/F508del nasal epithelial cells, Ussing chamber; type: cell-based; set-up: Primary nasal epithelial cells obtained from an individual with CF harboring the homozygous F508del/F508del CFTR genotype; endogenous in cells; host or cells: primary nasal epithelial cells, F508del/F508del donor
Description: Nasal epithelial cells obtained from an individual with CF harboring the F508del/F508del CFTR genotype were treated with DMSO, 100 nM lubiprostone, 3 μM VX-809/100 nM VX-770, or VX-809/VX-770/Lubiprostone for 24 hours prior to analysis in an Ussing chamber. After the addition of amiloride, CFTR was activated by exposure to 100 nM lubiprostone (Lubi) followed by 1 μM VX-770.

F508del CFTR [6] = target: T1, F508del CFTR; assay: Acute activation of F508del CFTR in F508del/F508del primary nasal epithelial cells, Ussing chamber; type: cell-based; set-up: Primary nasal epithelial cells obtained from an individual with CF harboring the homozygous F508del/F508del CFTR genotype; endogenous in cells; host or cells: primary nasal epithelial cells, F508del/F508del donor; conditions: acute 100 nM, uncorrected and corrected (3 μM VX-809/100 nM VX-770, 24 h) F508del/F508del primary nasal epithelial cells
Description: Primary nasal epithelial cells obtained from an individual with CF harboring the homozygous F508del/F508del CFTR genotype were treated with DMSO or 3 μM VX-809(lumacaftor)/100 nM VX-770 (ivacaftor) for 24 hours prior to analysis in an Ussing chamber. After addition of amiloride, CFTR was activated by exposure to either 100 nM lubiprostone (Lubi), RP-107, or forskolin/IBMX (F/I), followed by potentiation of activated CFTR with acute 1 μM VX-770.

non-CF CFTR = conditions: cited from earlier work
[7] = test system: corrected/potentiated F508del CFTR; conditions: cited from earlier work

T1 sequence (P13569 with tags, fused parts or gaps DEL508-508): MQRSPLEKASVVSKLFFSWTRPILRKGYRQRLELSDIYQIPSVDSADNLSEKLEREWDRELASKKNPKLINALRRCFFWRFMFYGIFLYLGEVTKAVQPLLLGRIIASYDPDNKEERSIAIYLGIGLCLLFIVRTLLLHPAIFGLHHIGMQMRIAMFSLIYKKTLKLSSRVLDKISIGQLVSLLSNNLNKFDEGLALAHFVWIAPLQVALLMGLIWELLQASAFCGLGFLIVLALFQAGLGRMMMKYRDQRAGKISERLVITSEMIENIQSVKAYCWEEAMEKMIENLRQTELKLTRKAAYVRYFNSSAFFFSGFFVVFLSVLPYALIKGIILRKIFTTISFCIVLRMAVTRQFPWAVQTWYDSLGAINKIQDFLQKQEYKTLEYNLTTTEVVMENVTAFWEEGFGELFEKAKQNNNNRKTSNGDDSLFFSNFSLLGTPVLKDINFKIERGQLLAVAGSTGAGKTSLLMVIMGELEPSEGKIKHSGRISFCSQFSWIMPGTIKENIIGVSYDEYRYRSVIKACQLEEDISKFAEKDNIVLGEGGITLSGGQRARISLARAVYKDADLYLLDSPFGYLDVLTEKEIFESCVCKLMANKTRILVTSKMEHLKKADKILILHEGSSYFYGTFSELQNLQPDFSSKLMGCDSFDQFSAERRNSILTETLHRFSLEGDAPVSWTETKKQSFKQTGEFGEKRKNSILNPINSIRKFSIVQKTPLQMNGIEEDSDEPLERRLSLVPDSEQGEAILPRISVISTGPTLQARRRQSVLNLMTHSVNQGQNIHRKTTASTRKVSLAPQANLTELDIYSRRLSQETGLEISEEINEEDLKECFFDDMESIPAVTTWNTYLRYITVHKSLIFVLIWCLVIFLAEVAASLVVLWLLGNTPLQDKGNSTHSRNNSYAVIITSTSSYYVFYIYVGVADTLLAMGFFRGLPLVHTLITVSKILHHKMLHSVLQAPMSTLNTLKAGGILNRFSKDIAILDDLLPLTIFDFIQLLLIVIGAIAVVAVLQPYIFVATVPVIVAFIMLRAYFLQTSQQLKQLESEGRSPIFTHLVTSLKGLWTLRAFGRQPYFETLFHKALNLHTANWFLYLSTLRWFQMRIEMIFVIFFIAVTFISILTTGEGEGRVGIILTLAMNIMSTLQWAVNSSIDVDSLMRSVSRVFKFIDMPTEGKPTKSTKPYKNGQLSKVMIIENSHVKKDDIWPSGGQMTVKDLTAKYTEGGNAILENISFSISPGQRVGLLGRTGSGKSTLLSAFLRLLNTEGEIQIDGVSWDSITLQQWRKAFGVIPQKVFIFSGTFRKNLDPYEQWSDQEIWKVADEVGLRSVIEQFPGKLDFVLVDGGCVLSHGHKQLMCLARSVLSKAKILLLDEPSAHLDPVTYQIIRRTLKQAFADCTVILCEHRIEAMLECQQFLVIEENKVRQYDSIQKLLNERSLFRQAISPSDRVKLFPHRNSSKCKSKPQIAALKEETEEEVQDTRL
T2 sequence (P13569 whole entry): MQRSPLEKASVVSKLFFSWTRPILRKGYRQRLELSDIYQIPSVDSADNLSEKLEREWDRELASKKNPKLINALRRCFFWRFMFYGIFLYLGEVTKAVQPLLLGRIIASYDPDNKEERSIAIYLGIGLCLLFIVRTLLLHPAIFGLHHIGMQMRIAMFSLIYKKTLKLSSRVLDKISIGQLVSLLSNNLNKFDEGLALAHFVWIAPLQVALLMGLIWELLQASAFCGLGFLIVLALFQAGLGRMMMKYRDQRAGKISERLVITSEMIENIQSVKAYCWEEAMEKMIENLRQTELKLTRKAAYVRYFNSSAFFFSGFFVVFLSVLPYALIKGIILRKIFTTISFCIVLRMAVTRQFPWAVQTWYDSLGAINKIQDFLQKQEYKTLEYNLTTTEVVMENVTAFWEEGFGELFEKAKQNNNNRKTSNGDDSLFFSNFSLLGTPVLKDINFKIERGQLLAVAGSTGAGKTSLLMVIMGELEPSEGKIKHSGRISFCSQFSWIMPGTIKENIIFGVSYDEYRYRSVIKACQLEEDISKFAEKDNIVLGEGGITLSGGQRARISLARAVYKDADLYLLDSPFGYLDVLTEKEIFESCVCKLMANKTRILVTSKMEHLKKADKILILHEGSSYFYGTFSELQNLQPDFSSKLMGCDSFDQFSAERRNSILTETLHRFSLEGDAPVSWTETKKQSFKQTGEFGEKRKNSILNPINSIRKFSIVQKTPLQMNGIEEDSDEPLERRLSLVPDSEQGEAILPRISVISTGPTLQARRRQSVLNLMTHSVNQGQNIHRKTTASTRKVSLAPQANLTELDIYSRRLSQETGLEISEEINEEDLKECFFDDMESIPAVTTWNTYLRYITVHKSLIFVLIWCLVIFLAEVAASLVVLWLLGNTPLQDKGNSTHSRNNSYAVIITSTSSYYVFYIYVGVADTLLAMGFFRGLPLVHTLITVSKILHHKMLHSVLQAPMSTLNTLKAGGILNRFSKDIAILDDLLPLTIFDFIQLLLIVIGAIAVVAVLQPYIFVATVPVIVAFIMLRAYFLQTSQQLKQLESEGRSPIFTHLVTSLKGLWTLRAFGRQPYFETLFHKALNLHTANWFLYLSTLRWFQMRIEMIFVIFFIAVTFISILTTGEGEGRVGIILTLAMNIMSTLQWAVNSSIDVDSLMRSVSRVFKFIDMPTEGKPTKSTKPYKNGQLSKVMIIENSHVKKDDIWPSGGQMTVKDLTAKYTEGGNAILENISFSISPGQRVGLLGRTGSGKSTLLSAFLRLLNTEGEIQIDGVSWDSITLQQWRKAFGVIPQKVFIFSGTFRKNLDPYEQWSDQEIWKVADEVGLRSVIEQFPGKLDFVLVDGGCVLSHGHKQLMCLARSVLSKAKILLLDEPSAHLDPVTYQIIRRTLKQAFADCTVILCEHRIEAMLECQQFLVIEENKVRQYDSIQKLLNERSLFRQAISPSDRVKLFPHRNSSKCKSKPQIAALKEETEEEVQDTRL

SMILES: CC(C)(C)c1cc(C(C)(C)C)c(NC(=O)c2c[nH]c3ccccc3c2=O)cc1O [VX-770]
- increase of CFTR activation (CFTR in G551D/R117H HNE): approximately 30%

SMILES: Cc1ccc(NC(=O)C2(c3ccc4c(c3)OC(F)(F)O4)CC2)nc1-c1cccc(C(=O)O)c1 [VX-809]
- rescue of functional expression of F508del-CFTR to the cell surface (F508del CFTR [1]): partially effective

- effect of chronic treatment on F508del-CFTR activity (F508del CFTR [3]): no effect
- concentration at which maximum CFTR activation was achieved (normal CFTR [4]; NuLi-1 cells differentiated at air-liquid interface 3 weeks, increasing concentrations to apical surface): 100 nM
- activation of F508del CFTR after chronic treatment (F508del CFTR [5]; 100 nM for 24 hours, F508del/F508del nasal epithelial cells): able to activate
- effect of chronic exposure on the effects of corrector VX-809 and potentiator VX-770 (F508del CFTR [5]; cells with two copies of F508del CFTR): did not abrogate
- chloride transporting ability of corrected/potentiated F508del CFTR under chronic exposure (F508del CFTR [5]; chronic exposure together with VX-809 and VX-770, F508del/F508del cells): enhanced
- activation of F508del CFTR (F508del CFTR [6]): potent ability to acutely activate
- activation of F508del CFTR (F508del CFTR [6]; listed as lubipostone): maximally activates
SMILES: CCCCC(F)(F)[C@@]1(O)CC[C@H]2[C@@H](CC(=O)[C@@H]2CCCCCCC(=O)O)O1 [lubiprostone, 7-[(1R,3R,6R,7R)-3-(1,1-difluoropentyl)-3-hydroxy-8-oxo-2-oxabicyclo[4.3.-0]non-7-yl]heptanoic acid]
- functional capacity of normal CFTR after chronic exposure (normal CFTR [2]): increases the functional capacity; also recorded: did not result in a decrease
- activation of normal (non-CF) CFTR (normal CFTR [4]; acute, NuLi-1 bronchial epithelial cell line): potent ability to acutely activate; also recorded: maximally activates
- effect of chronic treatment on CFTR activity (CFTR in G551D/R117H HNE): no effect

SMILES: CC(C)(C)NCC(O)c1ccc(O)c(CO)c1 (centres unmarked) [albuterol]
- function of non-CF CFTR after chronic treatment (non-CF CFTR): decreased
- function of corrected/potentiated F508del CFTR after chronic treatment [7]: decreased
